Experimental data from the NIST ThermoML archive (doi:10.1016/j.jct.2010.11.004).

Assay: excess molar enthalpy (molar enthalpy of mixing); xn = mol fraction of the nth substance listed
Details: 298.15 K, 101 kPa, Liquid, ISOTHERMAL TITRATION CALORIMETRY

CCCCCOCCCCC [dipentyl ether] + CCCCCCCCCCCC
Details	excess molar enthalpy [kJ/mol]
x1 = 0.0242	0.019
x1 = 0.0473	0.037
x1 = 0.0693	0.051
x1 = 0.0903	0.065
x1 = 0.1104	0.077
x1 = 0.1296	0.088
x1 = 0.148	0.098
x1 = 0.1657	0.107
x1 = 0.1869	0.117
x1 = 0.2071	0.126
x1 = 0.2262	0.134
x1 = 0.2445	0.141
x1 = 0.2619	0.147
x1 = 0.2786	0.152
x1 = 0.2989	0.158
x1 = 0.3181	0.163
x1 = 0.3363	0.167
x1 = 0.3535	0.171
x1 = 0.3699	0.174
x1 = 0.3855	0.177
x1 = 0.4003	0.178
x1 = 0.4144	0.179
x1 = 0.431	0.181
x1 = 0.4466	0.181
x1 = 0.4614	0.182
x1 = 0.4754	0.182
x1 = 0.4887	0.182
x1 = 0.5014	0.181
x1 = 0.5129	0.181
x1 = 0.5241	0.181
x1 = 0.5358	0.18
x1 = 0.5481	0.18
x1 = 0.5609	0.179
x1 = 0.5743	0.178
x1 = 0.5884	0.177
x1 = 0.6031	0.175
x1 = 0.6161	0.173
x1 = 0.6297	0.171
x1 = 0.644	0.168
x1 = 0.6589	0.166
x1 = 0.6745	0.162
x1 = 0.6908	0.158
x1 = 0.7056	0.153
x1 = 0.721	0.148
x1 = 0.7371	0.143
x1 = 0.7539	0.137
x1 = 0.7715	0.131
x1 = 0.79	0.123
x1 = 0.8057	0.117
x1 = 0.8221	0.109
x1 = 0.8391	0.101
x1 = 0.8569	0.092
x1 = 0.8754	0.082
x1 = 0.8947	0.07
x1 = 0.9107	0.061
x1 = 0.9273	0.051
x1 = 0.9445	0.04
x1 = 0.9623	0.027
x1 = 0.9808	0.014

CCCCCOCCCCC [dipentyl ether] + CCCCCCCCCCCCCC
Details	excess molar enthalpy [kJ/mol]
x1 = 0.0299	0.029
x1 = 0.0581	0.054
x1 = 0.0847	0.076
x1 = 0.1099	0.095
x1 = 0.1337	0.111
x1 = 0.1562	0.127
x1 = 0.1776	0.14
x1 = 0.198	0.151
x1 = 0.22	0.164
x1 = 0.2447	0.174
x1 = 0.266	0.184
x1 = 0.2862	0.192
x1 = 0.3054	0.198
x1 = 0.3235	0.203
x1 = 0.3407	0.208
x1 = 0.357	0.212
x1 = 0.3761	0.217
x1 = 0.394	0.22
x1 = 0.411	0.222
x1 = 0.427	0.224
x1 = 0.4422	0.225
x1 = 0.4566	0.226
x1 = 0.4702	0.227
x1 = 0.4832	0.227
x1 = 0.4927	0.227
x1 = 0.5031	0.228
x1 = 0.5139	0.228
x1 = 0.5253	0.229
x1 = 0.5371	0.228
x1 = 0.5494	0.228
x1 = 0.5604	0.227
x1 = 0.5718	0.226
x1 = 0.5838	0.224
x1 = 0.5962	0.223
x1 = 0.6092	0.221
x1 = 0.6228	0.218
x1 = 0.6369	0.214
x1 = 0.6502	0.212
x1 = 0.664	0.208
x1 = 0.6784	0.204
x1 = 0.6934	0.199
x1 = 0.7092	0.194
x1 = 0.7256	0.188
x1 = 0.7398	0.182
x1 = 0.7546	0.176
x1 = 0.7699	0.169
x1 = 0.7859	0.16
x1 = 0.8026	0.151
x1 = 0.8199	0.141
x1 = 0.8353	0.131
x1 = 0.8513	0.121
x1 = 0.8679	0.11
x1 = 0.8852	0.098
x1 = 0.9032	0.085
x1 = 0.918	0.074
x1 = 0.9333	0.061
x1 = 0.9491	0.047
x1 = 0.9655	0.032
x1 = 0.9824	0.017

CCCCCOCCCCC [dipentyl ether] + CCCCCCCCCCCCCCCC
Details	excess molar enthalpy [kJ/mol]
x1 = 0.0349	0.037
x1 = 0.0674	0.069
x1 = 0.0979	0.096
x1 = 0.1264	0.12
x1 = 0.1531	0.14
x1 = 0.1783	0.158
x1 = 0.2066	0.177
x1 = 0.233	0.193
x1 = 0.2577	0.207
x1 = 0.2809	0.219
x1 = 0.3027	0.228
x1 = 0.3231	0.236
x1 = 0.3459	0.244
x1 = 0.3673	0.25
x1 = 0.3873	0.256
x1 = 0.4061	0.26
x1 = 0.4238	0.263
x1 = 0.4405	0.265
x1 = 0.4593	0.267
x1 = 0.4768	0.268
x1 = 0.4933	0.269
x1 = 0.5087	0.269
x1 = 0.5158	0.27
x1 = 0.5271	0.27
x1 = 0.5389	0.269
x1 = 0.5491	0.269
x1 = 0.5598	0.268
x1 = 0.5706	0.267
x1 = 0.5823	0.265
x1 = 0.5943	0.263
x1 = 0.6067	0.261
x1 = 0.6197	0.258
x1 = 0.6333	0.254
x1 = 0.645	0.251
x1 = 0.6527	0.247
x1 = 0.6699	0.242
x1 = 0.6831	0.237
x1 = 0.6968	0.231
x1 = 0.7111	0.224
x1 = 0.7238	0.217
x1 = 0.737	0.211
x1 = 0.7506	0.203
x1 = 0.7648	0.194
x1 = 0.7795	0.185
x1 = 0.7984	0.174
x1 = 0.8182	0.163
x1 = 0.8315	0.152
x1 = 0.8512	0.139
x1 = 0.8718	0.126
x1 = 0.8935	0.111
x1 = 0.9162	0.095
x1 = 0.9292	0.082
x1 = 0.9425	0.068
x1 = 0.9563	0.052
x1 = 0.9704	0.036
x1 = 0.985	0.019
